Experimental data from US20240182481A1 (Tango Therapeutics, Inc., priority 2021, published 2024).
Read-outs that look alike come from different tables or passages of the source.

What was measured:
USP1-UAF1 = USP1-UAF1 (Homo sapiens, UniProt O94782); test: Ubiquitin Rhodamine assay for USP1-UAF1 activity; assay type: biochemical
Method: Certain compounds of the disclosure were assessed for USP1-UAF1 activity in a Ubiquitin Rhodamine assay as described in Example 135.

[1] = test system: MDA-MB-436 (BRCA1 mutant) cell line; test: Viability assay in BRCA1 mutant cell line MDA-MB-436; assay type: cell-based; details: Homo sapiens, MDA-MB-436, viability, BRCA1 mutant MDA-MB-436; read-out: MDA-MB-436 rel IC50
From the text: (§1) Table 1 also indicates IC50 values in a viability assay for a non-isogenic pair of BRCA1 mutant (column 5—MDA-MB-436) and BRCA1 WT (column 6—HCC1954) cell lines. These values indicate the effect of treatment with compound on cell survival.

[2] = test system: HCC1954 (BRCA1 WT) cell line; test: Viability assay in BRCA1 WT cell line HCC1954; assay type: cell-based; details: read-out: HCC 1954 IC50 rel IC50
From the text: as §1

USP1-UAF1, sequence (O94782 whole entry): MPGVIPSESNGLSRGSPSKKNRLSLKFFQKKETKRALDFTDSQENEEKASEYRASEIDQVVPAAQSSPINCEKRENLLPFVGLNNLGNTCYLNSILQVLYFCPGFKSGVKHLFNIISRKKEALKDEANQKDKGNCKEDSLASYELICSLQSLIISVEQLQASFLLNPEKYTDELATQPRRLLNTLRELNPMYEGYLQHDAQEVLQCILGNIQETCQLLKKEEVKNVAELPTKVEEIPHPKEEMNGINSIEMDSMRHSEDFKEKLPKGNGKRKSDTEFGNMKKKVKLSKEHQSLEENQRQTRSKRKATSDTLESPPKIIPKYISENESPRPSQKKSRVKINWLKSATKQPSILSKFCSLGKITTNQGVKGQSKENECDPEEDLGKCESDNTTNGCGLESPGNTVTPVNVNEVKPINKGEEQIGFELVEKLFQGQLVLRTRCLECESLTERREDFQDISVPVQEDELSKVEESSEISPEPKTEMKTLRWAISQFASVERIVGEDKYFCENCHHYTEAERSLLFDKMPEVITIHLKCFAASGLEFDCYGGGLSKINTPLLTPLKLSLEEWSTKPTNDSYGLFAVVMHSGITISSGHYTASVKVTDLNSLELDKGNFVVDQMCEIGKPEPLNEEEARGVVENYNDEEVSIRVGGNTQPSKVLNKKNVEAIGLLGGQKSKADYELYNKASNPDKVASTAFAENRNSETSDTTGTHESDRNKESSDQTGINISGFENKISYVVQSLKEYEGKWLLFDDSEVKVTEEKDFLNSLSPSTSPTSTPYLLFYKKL
USP1-UAF1, sequence (Q8TAF3 whole entry partner): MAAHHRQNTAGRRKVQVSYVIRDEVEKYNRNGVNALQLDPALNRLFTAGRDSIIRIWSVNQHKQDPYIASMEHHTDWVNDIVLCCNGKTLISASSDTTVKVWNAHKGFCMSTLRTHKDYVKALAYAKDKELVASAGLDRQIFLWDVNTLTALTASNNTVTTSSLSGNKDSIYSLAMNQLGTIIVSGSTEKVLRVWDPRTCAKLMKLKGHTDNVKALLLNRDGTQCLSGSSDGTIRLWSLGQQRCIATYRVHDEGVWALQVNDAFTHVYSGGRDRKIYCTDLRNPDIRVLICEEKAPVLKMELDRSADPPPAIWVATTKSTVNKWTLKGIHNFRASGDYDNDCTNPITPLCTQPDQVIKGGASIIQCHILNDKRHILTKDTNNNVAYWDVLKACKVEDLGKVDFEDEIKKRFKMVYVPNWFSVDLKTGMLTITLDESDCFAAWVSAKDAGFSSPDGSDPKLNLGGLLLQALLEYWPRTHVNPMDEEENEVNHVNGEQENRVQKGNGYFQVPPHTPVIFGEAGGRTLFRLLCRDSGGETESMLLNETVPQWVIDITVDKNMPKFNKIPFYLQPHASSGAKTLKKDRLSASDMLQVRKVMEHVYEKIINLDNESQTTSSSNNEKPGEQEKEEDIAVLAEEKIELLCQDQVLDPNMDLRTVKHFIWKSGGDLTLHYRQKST

| SMILES | IC50 (USP1-UAF1) [µM] | IC50 [1] [µM] | IC50 ([2]; Homo sapiens) [µM] | IC50 [2] [µM] |
| --- | --- | --- | --- | --- |
| CN1CC(n2cc(C(F)(F)F)nc2-c2ccc(C(O)c3c[nH]c4cnc(-c5cccnc5OC(F)F)nc34)cc2)C1 (centres unmarked) [Compound 38, [2-[2-(difluoromethoxy)-3-pyridyl]-5H-pyrrolo[3,2-d]pyrimidin-7-yl]-[4-[1-(1-methylazetidin-3-yl)-4-(trifluoromethyl)imidazol-2-yl]phenyl]methanol] | ≥ 10 | ≥ 10 | ≥ 10 | – |
| COc1ncnc(C2CC2)c1-c1ncc2[nH]cc([C@H](c3ccc(-c4nc(C(F)(F)F)cn4C)cc3)C(C)C)c2n1 (single isomer, unassigned) [Compound 208] | 0.1 to 10 | 0.25 to 10 | 0.25 to 10 | – |
| CN(Cc1ccccc1-c1ncc2[nH]cc(C(O)c3ccc(-c4nc(C(F)(F)F)cn4C)cc3)c2n1)CC(F)(F)F (centres unmarked) [Compound 42] | 0.1 to 10 | 0.25 to 10 | ≥ 10 | – |
| Cn1cc(C(F)(F)F)nc1-c1ccc(Cc2c[nH]c3cnc(-c4cccnc4N4CCC45CCOC5)nc23)cc1 (centres unmarked) [Compound 32] | 0.1 to 10 | 0.25 to 10 | 0.25 to 10 | – |
| CC(C)c1ccccc1-c1ncc2c(n1)c(C(O)c1ccc(-c3nc(C(F)(F)F)cn3C)cc1)cn2Cc1ccccc1 (centres unmarked) [Compound 80] | 0.1 to 10 | 0.25 to 10 | ≥ 10 | – |
| Cn1cc(C(F)(F)F)nc1-c1ccc(Cc2c[nH]c3cnc(-c4cccnc4NC4CC4)nc23)cc1 [Compound 44] | 0.1 to 10 | 0.25 to 10 | 0.25 to 10 | – |
| CCn1c(C(F)(F)F)cnc1-c1ccc(Cc2c[nH]c3cnc(-c4c(OC)ncnc4C4CC4)nc23)cc1 [Compound 70] | 0.1 to 10 | – | – | – |
| Cn1cc(C(F)(F)F)nc1-c1ccc(Cc2c[nH]c3cnc(-c4cccnc4N4CCC45COC5)nc23)cc1 [Compound 77] | 0.1 to 10 | 0.25 to 10 | ≥ 10 | – |
| CC(C)Nc1ncccc1-c1ncc2[nH]cc(Cc3ccc(-c4nc(C(F)(F)F)cn4C)cc3)c2n1 [Compound 50, N-isopropyl-3-[7-[[4-[1-methyl-4-(trifluoromethyl)imidazol-2-yl]phenyl]methyl]-5H-pyrrolo[3,2-d]pyrimidin-2-yl]pyridin-2-amine] | 0.1 to 10 | 0.25 to 10 | 0.25 to 10 | – |
| COc1ncnc(C2CC2)c1-c1ncc2[nH]cc(C(O)c3ccc(-c4nc(C(F)(F)F)cn4C)cc3)c2n1 (centres unmarked) [Compound 49, [2-(4-cyclopropyl-6-methoxy-pyrimidin-5-yl)-5H-pyrrolo[3,2-d]pyrimidin-7-yl]-[4-[1-methyl-4-(trifluoromethyl)imidazol-2-yl]phenyl]methanol] | 0.1 to 10 | 0.25 to 10 | ≥ 10 | – |
| CNc1ncccc1-c1ncc2[nH]cc(Cc3ccc(-c4nc(C(F)(F)F)cn4C)cc3)c2n1 [Compound 58, N-methyl-3-[7-[[4-[1-methyl-4-(trifluoromethyl)imidazol-2-yl]phenyl]methyl]-5H-pyrrolo[3,2-d]pyrimidin-2-yl]pyridin-2-amine] | 0.1 to 10 | 0.25 to 10 | 0.25 to 10 | – |
| Cn1cc(C(F)(F)F)nc1-c1ccc(Nc2c[nH]c3cnc(-c4cccnc4C4CC4)nc23)cc1 [Compound 43, 2-(2-cyclopropyl-3-pyridyl)-N-[4-[1-methyl-4-(trifluoromethyl)imidazol-2-yl]phenyl]-5H-pyrrolo[3,2-d]pyrimidin-7-amine] | 0.1 to 10 | ≥ 10 | ≥ 10 | – |
| COc1ncnc(C2CC2)c1-c1ncc2[nH]cc(C(O)c3ccc(-c4nc(C(F)(F)F)cn4C4CC4)cc3)c2n1 (centres unmarked) [Compound 19, [2-(4-cyclopropyl-6-methoxy-pyrimidin-5-yl)-5H-pyrrolo[3,2-d]pyrimidin-7-yl]-[4-[1-cyclopropyl-4-(trifluoromethyl)imidazol-2-yl]phenyl]methanol] | 0.1 to 10 | – | – | – |
| COc1ncnc(C2CC2)c1-c1nc(CN)c2[nH]cc(Cc3ccc(-c4nc(C(F)(F)F)cn4C)cc3)c2n1 [Compound 201] | 0.1 to 10 | – | – | – |
| Cn1cc(C(F)(F)F)nc1-c1ccc([S+]([O-])c2c[nH]c3cnc(-c4ccccc4C(F)(F)F)nc23)cc1 (centres unmarked) [Compound 36, 7-[4-[1-methyl-4-(trifluoromethyl)imidazol-2-yl]phenyl]sulfinyl-2-[2-(trifluoromethyl)phenyl]-5H-pyrrolo[3,2-d]pyrimidine] | 0.1 to 10 | – | – | – |
| Cn1cc(C(F)(F)F)nc1-c1ccc(S(=O)(=O)c2c[nH]c3cnc(-c4ccccc4C(F)(F)F)nc23)cc1 [Compound 46, 7-[4-[1-methyl-4-(trifluoromethyl)imidazol-2-yl]phenyl]sulfonyl-2-[2-(trifluoromethyl)phenyl]-5H-pyrrolo[3,2-d]pyrimidine] | 0.1 to 10 | – | – | – |
| COc1ncnc(C2CC2)c1-c1ncc2[nH]cc(C(C)c3ccc(-c4nc(C(F)(F)F)cn4C)cc3)c2n1 (single isomer, unassigned) [Compound 192] | – | – | – | 0.25 to 10 |
| COc1ncnc(C2CC2)c1-c1ncc2[nH]nc(Cc3ccc(-c4nc(C(F)(F)F)cn4C(C)C)cc3)c2n1 [Compound 16, 5-(4-cyclopropyl-6-methoxy-pyrimidin-5-yl)-3-[[4-[1-isopropyl-4-(trifluoromethyl)imidazol-2-yl]phenyl]methyl]-1H-pyrazolo[4,3-d]pyrimidine] | – | < 0.1 | ≥ 10 | – |
| Cn1cc(C(F)(F)F)nc1-c1ccc(Cc2c[nH]c3cnc(-c4cccnc4N4CC(F)C4)nc23)cc1 [Compound 68] | 0.1 to 10 | – | – | – |
| COc1ncnc(C2CC2)c1-c1ncc2[nH]cc(C(O)c3ccc(-c4nc(C#N)cn4C)cc3)c2n1 (centres unmarked) [Compound 37, 2-[4-[[2-(4-cyclopropyl-6-methoxy-pyrimidin-5-yl)-5H-pyrrolo[3,2-d]pyrimidin-7-yl]-hydroxy-methyl]phenyl]-1-methyl-imidazole-4-carbonitrile] | ≥ 10 | – | – | – |

Results, then the compound that gave them:

| IC50 (USP1-UAF1) [µM] | IC50 [1] [µM] | IC50 ([2]; Homo sapiens) [µM] | IC50 [2] [µM] | SMILES |
| --- | --- | --- | --- | --- |
| < 0.03 | < 0.1 | ≥ 10 | – | COc1ncnc(C2CC2)c1-c1ncc2c(n1)c(Cc1ccc(-c3nc(C(F)(F)F)cn3C)cc1)cn2C [Compound 39, 2-(4-cyclopropyl-6-methoxy-pyrimidin-5-yl)-5-methyl-7-[[4-[1-methyl-4-(trifluoromethyl)imidazol-2-yl]phenyl]methyl]pyrrolo[3,2-d]pyrimidine] |
| < 0.03 | – | – | – | COc1ncnc(C(C)(C)C)c1-c1ncc2[nH]nc(Cc3ccc(-c4nc(C(F)(F)F)cn4C)cc3)c2n1 [Compound 158] |
| 0.1 to 10 | ≥ 10 | ≥ 10 | – | Cn1cc(C(F)(F)F)nc1-c1ccc(C(O)c2c[nH]c3cnc(-c4cccnc4C4CC4)cc23)cc1 (centres unmarked) [Compound 30, [5-(2-cyclopropylpyridin-3-yl)-1H-pyrrolo[2,3-c]pyridin-3-yl]([4-[1-methyl-4-(trifluoromethyl)imidazol-2-yl]phenyl])methanol] |
| 0.1 to 10 | – | – | – | CO[C@@H](c1ccc(-c2nc(C(F)(F)F)cn2C)cc1)c1c[nH]c2cnc(-c3c(OC(F)F)ncnc3C3CC3)nc12 (single isomer, unassigned) [Compound 127] |
| 0.1 to 10 | 0.25 to 10 | ≥ 10 | – | Cn1cc(C(F)(F)F)nc1-c1ccc(C(O)c2c[nH]c3cnc(-c4cccnc4C4CC4)nc23)cc1 (centres unmarked) [Compound 40] |
| < 0.03 | < 0.1 | 0.25 to 10 | – | COc1ncnc(C2CC2)c1-c1nc(Cl)c2[nH]cc(Cc3ccc(-c4nc(C(F)(F)F)cn4C)cc3)c2n1 [Compound 187, 4-chloro-2-(4-cyclopropyl-6-methoxy-pyrimidin-5-yl)-7-[[4-[1-methyl-4-(trifluoromethyl)imidazol-2-yl]phenyl]methyl]-5H-pyrrolo[3,2-d]pyrimidine] |
| < 0.03 | < 0.1 | ≥ 10 | – | Cn1cc(C(F)(F)F)nc1-c1ccc(Cc2c[nH]c3cnc(-c4c(OCF)ncnc4C4CC4)nc23)cc1 [Compound 173, 2-[4-cyclopropyl-6-(fluoromethoxy)pyrimidin-5-yl]-7-[[4-[1-methyl-4-(trifluoromethyl)imidazol-2-yl]phenyl]methyl]-5H-pyrrolo[3,2-d]pyrimidine] |
| 0.03 to 0.1 | 0.25 to 10 | 0.25 to 10 | – | CN(Cc1ccccc1-c1ncc2[nH]cc(Cc3ccc(-c4nc(C(F)(F)F)cn4C)cc3)c2n1)CC(F)(F)F [Compound 61] |
| < 0.03 | – | – | – | COc1ncnc(C2CC2)c1-c1ncc2c(n1)c(Cc1ccc(-c3nc(C(F)(F)F)cn3C)cc1)cn2C1CC1 [Compound 170, 5-cyclopropyl-2-(4-cyclopropyl-6-methoxy-pyrimidin-5-yl)-7-[[4-[1-methyl-4-(trifluoromethyl)imidazol-2-yl]phenyl]methyl]pyrrolo[3,2-d]pyrimidine] |
| < 0.03 | < 0.1 | ≥ 10 | – | COc1ncnc(C2CC2)c1-c1ncc2[nH]cc(C(C)c3ccc(-c4nc(C(F)(F)F)cn4C)cc3)c2n1 (centres unmarked) [Compound 128] |
| < 0.03 | – | – | – | COc1ncnc(C(C)C)c1-c1ncc2[nH]nc(Cc3ccc(-c4nc(C(F)(F)F)cn4C)cc3)c2n1 [Compound 112] |
| < 0.03 | – | – | – | Cn1cc(C(F)(F)F)nc1-c1ccc(Cc2c[nH]c3cnc(-c4ccccc4C(C)(C)O)nc23)cc1 [Compound 157, 2-(2-(7-(4-(1-methyl-4-(trifluoromethyl)-1H-imidazol-2-yl)benzyl)-5H-pyrrolo[3,2-d]pyrimidin-2-yl)phenyl)propan-2-ol] |
| < 0.03 | – | – | – | Cn1cc(C(F)(F)F)nc1-c1ccc(Cc2n[nH]c3cnc(-c4c(OCF)ncnc4C4CC4)nc23)cc1 [Compound 169] |
| < 0.03 | – | – | – | CO[C@H](c1ccc(-c2nc(C(F)(F)F)cn2C)cc1)c1c[nH]c2cnc(-c3c(OC(F)F)ncnc3C3CC3)nc12 (single isomer, unassigned) [Compound 149] |
